Measured values as given in the NIST ThermoML archive (doi:10.1016/j.jct.2018.01.014).
Several values for one entry are separate records, joined by “and”; a condition that tells them apart may be missing. Equal values may be shown once.

Settings: Liquid, Transpiration method

CN1CCC[C@H]1c1cccnc1 [(-)-3-(N-methylpyrrolidino)pyridine]
Settings | vapor or sublimation pressure
288.7 K | 0.002398 kPa
293.8 K | 0.003508 kPa
298.5 K | 0.005519 kPa
303.3 K | 0.008212 kPa
308.2 K | 0.01232 kPa and 0.01187 kPa
313.1 K | 0.01822 kPa
318.1 K | 0.02642 kPa
323 K | 0.03648 kPa
327.9 K | 0.05164 kPa
333.2 K | 0.07337 kPa
335.7 K | 0.08301 kPa
338.2 K | 0.1012 kPa
340.7 K | 0.1124 kPa
343.1 K | 0.1387 kPa
345.6 K | 0.1639 kPa
348.2 K | 0.2061 kPa
350.6 K | 0.222 kPa
353.2 K | 0.2733 kPa
358.1 K | 0.3726 kPa
363.2 K | 0.5077 kPa
368.1 K | 0.6692 kPa
373.1 K | 0.8635 kPa
